Assay results reported in patent publication US11964000B2, “Cancer treatment methods using nanofiber stabilized growth factors” (Northwestern University, priority 2020, dated 2024).
“Also recorded” adds a separate entry of the source. Residues, ends and D or L forms follow the SMILES beside them. Groups on a side chain read outwards from the residue. *: point of attachment. X1 = CC(=O)N[C@H]1[C@H](OCCn2cc(CCC(=O)*)nn2)O[C@H](COS(=O)(=O)O)[C@@H](OS(=O)(=O)O)[C@@H]1OS(=O)(=O)O; Palmitoyl = CCCCCCCCCCCCCCCC(=O)*; AEEA = NCCOCCOCC(=O)O

Experiments:
[1] = tested on: KNS42 cells; assay: KNS42 cell viability in response to vincristine and vinblastine after BMP4 treatment; format: cell-based, human
Text: (§1) FIG. 2. BMP4 increases chemotherapeutic efficacy via reducing SETD1A and H3K4me3. (FIG. 2A) H3K4me3 levels in pediatric high-grade glioma cells in response to BMP4 (1 to 100/ng/ml). (FIG. 2B) SETD1A, SMAD1/5/8, MDR1, H3K4me3 levels in pediatric high-grade glioma-KNS42 cells and LCH-13-pGBM patient derived primary cultured cells. (FIG. 2C) KNS42 cell viability in response to vincristine (VCR) and vinblastine (VBL) with/without Dorsomorphine, a phosphoSMAD1/5/8 inhibitor. (FIG. 2D, FIG. 2E) KNS42 cell viability in response to VCR and VBL following down- or up-regulation of SETD1A via siSETD1A (D) or pET28-SETD1A and pET28-SETD1A with PSC833, a specific MDR1 inhibitor (E), respectively. (FIG. 2F) Protein immunoprecipitation with SMAD1/5/8, pSMAD1/5/8 antibodies from total protein extracts from BMP4 treated KNS42 cells using Biotin-streptavidin kit (Thermo Fisher) and detected with SETD1A, SMAD1/5/8, pSMAD1/5/8 using western blots.
(§2) This decreasing effect is reversed by Dorsomorphine, an inhibitor of pSMAD1/5/8 (FIG. 2C). In parallel, it was also tested and verified that SETD1A is associated with chemosensitivity in vitro in HGG cells (FIGS. 2D and E). […] Thus, it was hypothesized that BMP4 is altering gene expression through its effect on histone PTM. These findings prompted investigation of 1) in addition to H3K4me3, determining other histone PTMs that are affected subsequent to BMP4 treatment of tumor cells; and 2) other gene expression alterations that contribute to the heightened tumor cell response to cytotoxic therapy following BMP4 treatment.

[2] = tested on: pSMAD1/5/8; assay: Western blot of pSMAD1/5/8 in HGG cells treated with PAs with and without BMP4; format: cell-based, human; settings: PA 25 μM with BMP4 5 ng/ml, 24h and 72h; KNS42 and CHLA200 cells
Text: (§3) FIG. 5. Self-assembled peptide amphiphile nanostructures extend and enhance BMP4 effects in pediatric high grade glioma cells in vitro. (FIG. 5A) Western blots show PAs enhance BMP4 function by activating its downstream target pSMAD1/5/8 in pediatric glioma KNS42 (FIG. 5B) and CHLA200 cells. (FIG. 5C) Increased therapeutic efficacy in response to carboplatin treatment.
(§4) To investigate biological effects of PA-BMP4, HGG responses to different types of PAs, both with and without bound BMP4, were analyzed. HGG cells were treated with BMP4 (5 ng/ml), GlncPA (25 μM) and GlncPA (25 μM)-BMP4 (5 ng/ml), E2-PA (25 μM) and E2-PA (25 μM)-BMP4 (5 ng/ml) for 24h and 72h.

[3] = tested on: HGG cells; assay: HGG cell chemosensitivity (carboplatin) with PA-bound BMP4; format: cell-based, human; settings: PA 25 μM with BMP4 5 ng/ml; response to carboplatin treatment
Text: as §3, §4

[4] = biological target: T1, BMP4 (Homo sapiens, UniProt P12644); assay: ELISA of BMP4 half-life with peptide amphiphile nanostructures; settings: BMP4 with PA nanostructures
T1 sequence (P12644 293-408): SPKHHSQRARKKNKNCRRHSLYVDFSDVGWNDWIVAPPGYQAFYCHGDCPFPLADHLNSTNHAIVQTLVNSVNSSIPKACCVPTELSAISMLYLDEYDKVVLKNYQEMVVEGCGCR
Procedure: FIG. 3. […] (FIG. 3A) Molecular structure of GlncPA molecule (i.e. the glycosylated peptide amphiphile or “GPA”) and schematic of the self-assembled GlncPA nanofiber. The grey molecular region guides the self-assembly process into nanofibers, the blue molecular region contains the tri-sulfated monosaccharide responsible for protein binding actions. (FIG. 3B) SEM of GlncPA nanofiber bundles after exposure to blood proteins for 5 minutes. […] (Abbreviation: E2PA=filler PA=E2-PA, GlncPA=glycosylated PA=GPA)
The grey molecular region guides the self-assembly process into nanofibers, the blue molecular region contains the tri-sulfated monosaccharide responsible for protein binding actions.

[5] = Cy3-coupled PA, intracranial injection, compared with E2PA and MixPA
Text: (FIG. 6A) Intracranial distribution of glycosylated (GlncPA), E2 (E2PA) and glycosylated+E2 (MixPA) peptide amphiphiles coupled with Cy3.
Intracranial distribution of PAs administered directly into mouse brain, as well as the anti-tumor activity of direct intratumoral administration of PA-bound BMP4, was investigated.

[6] = tested on: H3K4me3; assay: H3K4me3 levels in pediatric high-grade glioma cells in response to BMP4; format: cell-based, human; settings: BMP4 1 to 100 ng/ml
Text: as §1
This decreasing effect is reversed by Dorsomorphine, an inhibitor of pSMAD1/5/8 (FIG. 2C). In parallel, it was also tested and verified that SETD1A is associated with chemosensitivity in vitro in HGG cells (FIGS. 2D and E). […] Thus, it was hypothesized that BMP4 is altering gene expression through its effect on histone PTM. […]

[7] = tested on: pSMAD1/5/8, SETD1A, MDR1; assay: Western blot of SETD1A, SMAD1/5/8, MDR1 in KNS42 cells and LCH-13-pGBM primary cultured cells after BMP4; format: cell-based, human; settings: KNS42 and LCH-13-pGBM cells, BMP4 treatment
Text: as §1, §2

**Q.** For `c1cc(-c2cnn3cc(-c4ccc(OCCN5CCCCC5)cc4)cnc23)ccn1` [Dorsomorphine, reference compound], which “effect on BMP4-induced decrease of cell viability with VCR or VBL” value ([1]; Dorsomorphine, inhibitor of pSMAD1/5/8, added) is on record?
**A.** reversed

**Q.** For `CCCCCCCCCCCCCCCC(=O)N[C@H](C(=O)N[C@H](C(=O)N[C@@H](C)C(=O)N[C@@H](C)C(=O)N[C@@H](CCC(=O)O)C(=O)N[C@@H](CCC(=O)O)C(N)=O)C(C)C)C(C)C` [E2-PA] (Palmitoyl-VVAAEE-NH2), which “BMP4 activity as phosphorylation of SMAD1/5/8” value [2] is on record?
**A.** enhance BMP4 activity

**Q.** And the HGG cell chemosensitivity [3]?
**A.** increased HGG cell chemosensitivity

**Q.** What about the BMP4 half-life [4] of the same molecule?
**A.** extend BMP4 half-life

**Q.** With `CCCCCCCCCCCCCCCC(=O)N[C@H](C(=O)N[C@H](C(=O)N[C@@H](C)C(=O)N[C@@H](C)C(=O)N[C@@H](CCC(=O)O)C(=O)N[C@@H](CCC(=O)O)C(=O)N[C@@H](CCCCNC(=O)COCCOCCNC(=O)CCc1cn(CCO[C@@H]2O[C@H](COS(=O)(=O)O)[C@@H](OS(=O)(=O)O)[C@H](OS(=O)(=O)O)[C@H]2NC(C)=O)nn1)C(N)=O)C(C)C)C(C)C` [GlncPA] (Palmitoyl-VVAAEEK([AEEA-X1])-NH2) as the molecule, how does the intracranial distribution [5] read?
**A.** greater distribution

**Q.** And the BMP4 half-life [4]?
**A.** markedly prolong the half-life of BMP4

B1: Bone morphogenetic protein 4 (protein)
chain: T1 sequence (P12644 293-408)
**Q.** With B1 as the molecule, how does the H3K4me3 level [6] read?
**A.** reduces H3K4me3; also recorded: significant decrease in H3K4me3

**Q.** What about the “expression of SETD1A” value [7] of the same molecule?
**A.** decreasing expression of SETD1A

**Q.** What about the “expression of multidrug resistant gene 1 (MDR1)” value [7] of the same molecule?
**A.** decreasing expression

**Q.** And the “phosphorylation of SMAD1/5/8 (pSMAD1/5/8)” value [7]?
**A.** increases phosphorylation of SMAD1/5/8

**Q.** What about the “cell viability with vinblastine (VBL)” value ([1]; BMP4 for 48 hrs, then VBL 2 μg/ml, relative to VBL alone) of the same molecule?
**A.** markedly decreased cell viability

**Q.** And the “cell viability with vincristine (VCR)” value ([1]; BMP4 for 48 hrs, then VCR 1 μg/ml, relative to VCR alone)?
**A.** markedly decreased cell viability
